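Five compound concentrations were applied to cells in 96-well plates for 48 hours; endpoints were derived by simple linear interpolation of the resulting dose-response curve. The concentration for 50% growth inhibition is given as GI50. TGI: concentration producing complete growth inhibition.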
How the values were obtained:
Assay in all cases: NCI-60 cell line screen, 48 h; in the data active = GI50 below about 0.43 µM; inactive = the rest
SF-295 CNS = system: SF-295 CNS
CCRF-CEM leukemia = system: CCRF-CEM leukemia
MCF7 breast = system: MCF7 breast
BT-549 breast = system: BT-549 breast
EKVX NSCLC = system: EKVX NSCLC
COLO 205 colon = system: COLO 205 colon
RXF 393 renal = system: RXF 393 renal
CAKI-1 renal = system: CAKI-1 renal
UO-31 renal = system: UO-31 renal
UACC-62 melanoma = system: UACC-62 melanoma
NCI-H522 lung = system: NCI-H522 lung
TK-10 renal = system: TK-10 renal
SK-MEL-2 melanoma = system: SK-MEL-2 melanoma
DU-145 prostate = system: DU-145 prostate
SF-268 CNS = system: SF-268 CNS
OVCAR-5 ovarian = system: OVCAR-5 ovarian
SNB-19 CNS = system: SNB-19 CNS
MALME-3M melanoma = system: MALME-3M melanoma
HCC-2998 colon = system: HCC-2998 colon
ACHN renal = system: ACHN renal
HS 578T breast = system: HS 578T breast
OVCAR-4 ovarian = system: OVCAR-4 ovarian
A498 renal = system: A498 renal
SK-OV-3 ovarian = system: SK-OV-3 ovarian
T-47D breast = system: T-47D breast
NCI-H460 lung = system: NCI-H460 lung
SW-620 colon = system: SW-620 colon
SK-MEL-28 melanoma = system: SK-MEL-28 melanoma
MDA-MB-435 = system: MDA-MB-435
NCI-H23 lung = system: NCI-H23 lung
LOX IMVI melanoma = system: LOX IMVI melanoma
NCI-H226 lung = system: NCI-H226 lung
U251 CNS = system: U251 CNS
SNB-75 CNS = system: SNB-75 CNS
MDA-MB-231 breast = system: MDA-MB-231 breast
HT29 colon = system: HT29 colon
RPMI-8226 leukemia = system: RPMI-8226 leukemia
HOP-92 NSCLC = system: HOP-92 NSCLC
KM12 colon = system: KM12 colon
M14 melanoma = system: M14 melanoma
HOP-62 NSCLC = system: HOP-62 NSCLC
OVCAR-3 ovarian = system: OVCAR-3 ovarian
NCI/ADR-RES ovarian = system: NCI/ADR-RES ovarian
SN12C renal = system: SN12C renal
HCT-15 colon = system: HCT-15 colon
SK-MEL-5 melanoma = system: SK-MEL-5 melanoma
786-0 renal = system: 786-0 renal
HCT-116 colon = system: HCT-116 colon
SF-539 CNS = system: SF-539 CNS

CCCCCCCC/C(=C\C1=C(C)C(=O)C(OC)=C(OC)C1=O)C(=O)O
44.8 µM: TGI (MCF7 breast)
active: GI50 (SN12C renal) 0.198 µM
31.6 µM: TGI (EKVX NSCLC)
48.8 µM: TGI (T-47D breast)
29.9 µM: TGI (HCT-116 colon)
45.5 µM: TGI (LOX IMVI melanoma)
44.1 µM: TGI (RXF 393 renal)
49.9 µM: TGI (RPMI-8226 leukemia)
54.6 µM: TGI (BT-549 breast)
29.6 µM: TGI (HOP-92 NSCLC)
29.2 µM: TGI (SN12C renal)
41.8 µM: TGI (U251 CNS)
> 100 µM: TGI (SF-295 CNS) | TGI (COLO 205 colon) | TGI (CAKI-1 renal) | TGI (UO-31 renal) | TGI (UACC-62 melanoma) | TGI (NCI-H522 lung) | TGI (TK-10 renal) | TGI (SK-MEL-2 melanoma) | TGI (OVCAR-5 ovarian) | TGI (SNB-19 CNS) | TGI (MALME-3M melanoma) | TGI (HCC-2998 colon) | TGI (ACHN renal) | TGI (A498 renal) | TGI (SK-OV-3 ovarian) | TGI (NCI-H460 lung) | TGI (SW-620 colon) | TGI (SK-MEL-28 melanoma) | TGI (NCI-H23 lung) | TGI (NCI-H226 lung) | TGI (SNB-75 CNS) | TGI (HT29 colon) | TGI (KM12 colon) | TGI (M14 melanoma) | TGI (HOP-62 NSCLC) | TGI (OVCAR-3 ovarian) | TGI (HCT-15 colon) | TGI (SK-MEL-5 melanoma) | TGI (786-0 renal)
51.2 µM: TGI (MDA-MB-231 breast)
75.5 µM: TGI (SF-539 CNS)
36.9 µM: TGI (OVCAR-4 ovarian)
37 µM: TGI (MDA-MB-435)
94 µM: TGI (DU-145 prostate)
inactive: GI50 (SF-295 CNS) 43 µM | GI50 (CCRF-CEM leukemia) 20.2 µM | GI50 (MCF7 breast) 22.3 µM | GI50 (BT-549 breast) 24.2 µM | GI50 (EKVX NSCLC) 15.8 µM | GI50 (COLO 205 colon) > 100 µM | GI50 (RXF 393 renal) 23.7 µM | GI50 (CAKI-1 renal) 51.2 µM | GI50 (UO-31 renal) 40.3 µM | GI50 (UACC-62 melanoma) 33.8 µM | GI50 (NCI-H522 lung) 78.1 µM | GI50 (TK-10 renal) > 100 µM | GI50 (SK-MEL-2 melanoma) > 100 µM | GI50 (DU-145 prostate) 25.4 µM | GI50 (SF-268 CNS) 29.5 µM | GI50 (OVCAR-5 ovarian) > 100 µM | GI50 (SNB-19 CNS) 75.9 µM | GI50 (MALME-3M melanoma) 51.3 µM | GI50 (HCC-2998 colon) 66.2 µM | GI50 (ACHN renal) 29 µM | GI50 (HS 578T breast) 23.8 µM | GI50 (OVCAR-4 ovarian) 19.9 µM | GI50 (A498 renal) 78.8 µM | GI50 (SK-OV-3 ovarian) > 100 µM | GI50 (T-47D breast) 21.9 µM | GI50 (NCI-H460 lung) 86.7 µM | GI50 (SW-620 colon) 35 µM | GI50 (SK-MEL-28 melanoma) 43.4 µM | GI50 (MDA-MB-435) 18.8 µM | GI50 (NCI-H23 lung) 57.7 µM | GI50 (LOX IMVI melanoma) 19.9 µM | GI50 (NCI-H226 lung) 29.2 µM | GI50 (U251 CNS) 19.9 µM | GI50 (SNB-75 CNS) 67.7 µM | GI50 (MDA-MB-231 breast) 21.4 µM | GI50 (HT29 colon) 65.1 µM | GI50 (RPMI-8226 leukemia) 20.5 µM | GI50 (HOP-92 NSCLC) 13 µM | GI50 (KM12 colon) 53.5 µM | GI50 (M14 melanoma) > 100 µM | GI50 (HOP-62 NSCLC) 73.2 µM | GI50 (OVCAR-3 ovarian) 34.1 µM | GI50 (NCI/ADR-RES ovarian) 27.1 µM | GI50 (HCT-15 colon) 63.6 µM | GI50 (SK-MEL-5 melanoma) 36.7 µM | GI50 (786-0 renal) 62.7 µM | GI50 (HCT-116 colon) 16.3 µM | GI50 (SF-539 CNS) 23.2 µM
97.5 µM: TGI (NCI/ADR-RES ovarian)
70.3 µM: TGI (SF-268 CNS)
83.9 µM: TGI (HS 578T breast)
42.5 µM: TGI (CCRF-CEM leukemia)

— PubChem BioAssay (NCI)
